Laboratory results from patent US20080241258A1, “TREATMENT OF DISEASES WITH NANOPARTICLES HAVING A SIZE-DEPENDENT CYTOTOXICITY” (priority 2007, published 2008).

Columns and labels:
[1] = Stability (aggregation) of Au compounds in serum containing cell culture media, scored from microscopic pictures; type: physicochemical; parameters: key: Material aggregation was scored positive (+); negative (−); settings: for Aggregation at 12 hours: sign after slash; for Aggregation at 5 minutes: sign in front of slash
Description: Next applicant tested the stability of the materials in the serum containing cell culture media formulated for proper growth of the cell lines used in this study. Applicant reasoned that the medium composition might affect particle aggregation and that aggregation of materials would greatly influence the endocytic pathway and ultimately the cellular trajectories of materials precluding or favoring intracellular targets. Macroscopic and microscopic aspects of medium-material combinations in the absence of any cells were studied by applicant.
Materials were grouped according to their stability in specific media and over time.
Material stability was assayed in DMEM high glucose (H). DMEM low glucose (L) and RPMI 1640 including 10% fetal calf serum. Material aggregation was scored positive (+) or negative (−) from microscopic pictures taken after 5 minutes (sign in from of slash) and 12 hours incubation (sign after slash).

[2] = tested on: HeLa cervix carcinoma epithelial cells; test: MTT cytotoxicity assay, logarithmic growth phase; type: cell-based; settings: FIG. 3A, at ˜10 μM ligand
Description: Applicant quantified the toxicity of Au compounds in four cell lines determining the inhibitory concentrations that effected 50% growth inhibition (IC50) in MTT assays. Applicant reasoned that actively growing and dividing cells during logarithmic growth should be more vulnerable to toxic insults than cells in near or at the stationary phase of cell culture. Thus, applicant determined growth curves for all cell lines to estimate the logarithmic and stationary growth phases in relation to the number of cells seeded into each well of a 96-well cell culture plate. […] This graph serves as a reference to estimate whether cells were in the logarithmic or in the stationary phase of cell culture at the start of any given experiment. […] The bottom panel depicts the protocol of cytotoxicity testing starting during the logarithmic (left bottom panel) or the stationary growth phase (right bottom panel).
Having established growth characteristics for the reporter cell lines applicant treated the cells with Au compounds for up to 48 hours to observe the full effect of toxicity. […]
FIG. 3 A): HeLa cells were plated at 2000 cells/well and grown for 3 days into the logarithmic growth phase. […] Shown are the logarithmic curve fits of tabulated MTT readings. […] All concentrations relate to the amount of gold [Au] detected by AAS in the authentic samples after performing the cytotoxicity test. […]

[3] = tested on: HeLa, SK-MeI-28, L929 and J774A1 cells; test: MTT cytotoxicity assay in four cell lines
Description: Applicant tested the cytotoxicity of these particles in four cell lines representing major functional cell types with barrier and phagocyte function.
Applicant added Au compounds to HeLa cervix carcinoma epithelial cells (HeLa), SK-MeI-28 melanoma cells (SK-MeI-28), L929 mouse fibroblasts (L929) and J774A.1 mouse monocytic/macrophage cells (J774A1) and first studied their response by light and electron microscopy.
Applicant quantified the toxicity of Au compounds in four cell lines determining the inhibitory concentrations that effected 50% growth inhibition (IC50) in MTT assays. […] Thus, applicant determined growth curves for all cell lines to estimate the logarithmic and stationary growth phases in relation to the number of cells seeded into each well of a 96-well cell culture plate.
Having established growth characteristics for the reporter cell lines applicant treated the cells with Au compounds for up to 48 hours to observe the full effect of toxicity. […] Applicant performed toxicity tests both during the logarithmic and the stationary phase of cell growth following the time course depicted in FIG. 2, lower panels.
FIG. 3 A): HeLa cells were plated at 2000 cells/well and grown for 3 days into the logarithmic growth phase. […] All concentrations relate to the amount of gold [Au] detected by AAS in the authentic samples after performing the cytotoxicity test. […]

[4] = DMEM high glucose (H) including 10% fetal calf serum
[5] = DMEM low glucose (L) including 10% fetal calf serum
[6] = RPMI 1640 including 10% fetal calf serum

Row | Compound | Aggregation at 12 hours [1, 4] | Aggregation at 5 minutes [1, 4] | Aggregation at 12 hours [1, 5] | Aggregation at 5 minutes [1, 5] | Aggregation at 12 hours [1, 6] | Aggregation at 5 minutes [1, 6] | ligand toxicity [2] | non-toxic at up to x fold higher concentration (than 1.4 nm nanoclusters) ([3]; four cell lines) | IC50 ([3]; read-out: cytotoxicity: non-toxic at concentrations up to, all cells tested)
1 | [Au+3].[Cl-].[Cl-].[Cl-].[Cl-].[H+] [HAuCl4] | −/− | −/− | −/− | −/− | −/− | −/− |  |  | 
2 | [Cl][Au-]([Cl])([Cl])[Cl].[Na+] [NaAuCl4] | −/− | −/− | −/− | −/− | −/− | −/− |  |  | 
3 | O=S(=O)([O-])c1cccc(P(c2ccccc2)c2ccccc2)c1.[Na+] [TPPMS, triphenylphosphine monosulfonate] | −/− | −/− | −/− | −/− | −/− | −/− | non-toxic |  | 
4 | O=S(=O)([O-])c1cccc(P(c2cccc(S(=O)(=O)[O-])c2)c2cccc(S(=O)(=O)[O-])c2)c1.[Na+].[Na+].[Na+] [TPPTS, triphenylphosphine trisulfonate] | −/− | −/− | −/− | −/− | −/− | −/− | non-toxic |  | 
5 | gold thiomalate [Tauredon] | +/+ | +/+ | +/+ | +/+ | + | − |  | up to 1000 fold | > 10 mM
